Measured values: patent US10517889B2, “Modulators of SMAD7 expression” (Ionis Pharmaceuticals, Inc., priority 2017, dated 2019)
Strand notation (5' to 3'): a small letter for the sugar, then the base; units joined by * are phosphorothioate-linked, units joined directly phosphodiester-linked; [ ] holds rarer units or linkages, { } end groups; capitals alone tell only the bases. e = 2'-O-(2-methoxyethyl) (MOE); [5mC] = 5-methylcytosine; d = 2'-deoxy (DNA)

The substances below were run on human SMAD7 mRNA (assay: Antisense inhibition of human SMAD7 mRNA expression in Hep3B cells by 5-10-5 MOE gapmers, single concentration, electroporation, RT-PCR (Example 1, Study 1 and 2)). Details: Study 2, electroporation with 15,000 nM antisense oligonucleotide, 5-10-5 MOE gapmers targeting SEQ ID NO: 1 and 2.
Assay type: cell-based
Outline: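 Hep3B cells (20,000/well) electroporated with 5-10-5 MOE gapmer at 5,000 nM or 15,000 nM for approximately 24 h. SMAD7 mRNA quantified by real-time PCR with primer probe set RTS5062 and normalized to RIBOGREEN total RNA. Values are percent inhibition relative to untreated controls.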

Substance	% inhibition of SMAD7 mRNA expression
771575 (antisense eA*e[5mC]*e[5mC]*eG*e[5mC]*dT*dT*dG*dG*dG*dA*d[5mC]*dT*dG*d[5mC]*eA*eA*eA*e[5mC]*e[5mC]) [compound 771575]	47%
771580 (antisense eA*eG*e[5mC]*eT*eT*dG*d[5mC]*d[5mC]*d[5mC]*dA*dG*dG*dT*dA*d[5mC]*eT*eG*e[5mC]*e[5mC]*eT) [compound 771580]	25%
771582 (antisense e[5mC]*eT*eG*eG*e[5mC]*dA*dG*d[5mC]*dT*dG*d[5mC]*dT*dG*dG*dG*eA*e[5mC]*e[5mC]*e[5mC]*e[5mC]) [compound 771582]	37%
771588 (antisense eA*eG*eG*e[5mC]*e[5mC]*d[5mC]*dG*dT*dG*dT*d[5mC]*d[5mC]*dT*dT*dG*eA*eT*eG*eA*eG) [compound 771588]	13%
771590 (antisense eG*e[5mC]*e[5mC]*eT*eG*dT*dG*dG*dA*d[5mC]*dA*dG*dG*d[5mC]*d[5mC]*e[5mC]*eG*eT*eG*eT) [compound 771590]	14%
771591 (antisense e[5mC]*eA*eG*eA*eA*dG*d[5mC]*d[5mC]*dT*dG*dT*dG*dG*dA*d[5mC]*eA*eG*eG*e[5mC]*e[5mC]) [compound 771591]	50%
771596 (antisense eG*eA*e[5mC]*eA*eA*dG*dG*dA*dT*dG*dA*dA*dA*dA*dT*eA*eA*eT*eT*eG) [compound 771596]	0%
771598 (antisense eG*eA*eA*eG*eG*dG*dA*dA*dT*dA*dA*dG*dA*d[5mC]*dA*eA*eG*eG*eA*eT) [compound 771598]	34%
771599 (antisense eG*e[5mC]*eA*eG*eG*dA*dA*dG*dG*dG*dA*dA*dT*dA*dA*eG*eA*e[5mC]*eA*eA) [compound 771599]	39%
771604 (antisense e[5mC]*e[5mC]*eT*eT*eG*dG*dG*dA*dA*dG*d[5mC]*d[5mC]*d[5mC]*dA*dT*e[5mC]*eT*e[5mC]*eA*eG) [compound 771604]	12%
771606 (antisense eG*eG*eG*e[5mC]*eT*dG*d[5mC]*d[5mC]*d[5mC]*d[5mC]*dG*dG*d[5mC]*dA*dG*e[5mC]*e[5mC]*e[5mC]*eT*eT) [compound 771606]	0%
771607 (antisense eG*eG*eT*eG*eA*dG*d[5mC]*dA*dA*dT*dA*d[5mC]*dT*dG*dT*eG*eA*eG*eG*eG) [compound 771607]	34%
771612 (antisense eT*e[5mC]*e[5mC]*eG*eG*dG*dA*dA*dA*dA*dA*d[5mC]*d[5mC]*dT*dG*eA*eT*eG*eT*e[5mC]) [compound 771612]	3%

Same assay, conditions: electroporation with 15,000 nM antisense oligonucleotide (Study 2), 5-10-5 MOE gapmers targeting SEQ ID NO: 1 and 2

Substance	% Inhibition of SMAD7 mRNA	% inhibition of SMAD7 mRNA expression
771568 (antisense e[5mC]*eT*eG*e[5mC]*eA*dA*dA*d[5mC]*d[5mC]*dT*d[5mC]*dT*d[5mC]*dT*dG*e[5mC]*eT*eG*eG*eG) [compound 771568]	26%	
771584 (antisense eA*eG*e[5mC]*e[5mC]*eG*dT*dG*d[5mC]*dT*d[5mC]*d[5mC]*dT*dG*dG*d[5mC]*eA*eG*e[5mC]*eT*eG) [compound 771584]	26%	
771592 (antisense e[5mC]*eT*eG*e[5mC]*eT*d[5mC]*dA*dG*dA*dA*dG*d[5mC]*d[5mC]*dT*dG*eT*eG*eG*eA*e[5mC]) [compound 771592]	16%	
771600 (antisense eT*eG*eG*e[5mC]*e[5mC]*dA*dA*dA*dA*dA*dA*dG*dA*dA*dA*eG*eA*e[5mC]*eG*e[5mC]) [compound 771600]	11%	
771602 (antisense eG*eG*eA*eG*eA*dT*d[5mC]*d[5mC]*dA*dG*dG*dA*dG*d[5mC]*dA*eG*eA*eT*eG*eG) [compound 771602]		39%
771608 (antisense e[5mC]*eT*eG*eG*eG*dT*dG*dA*dG*d[5mC]*dA*dA*dT*dA*d[5mC]*eT*eG*eT*eG*eA) [compound 771608]	45%	34%
771609 (antisense eA*eT*eG*eT*e[5mC]*dA*d[5mC]*d[5mC]*dA*dG*dG*dG*d[5mC]*dA*dG*eG*e[5mC]*eA*eG*eG) [compound 771609]		47%

Same assay, conditions: electroporation, 15,000 nM antisense oligonucleotide (Study 2), 5-10-5 MOE gapmers targeting SEQ ID NO: 1 and 2

Substance	% inhibition of SMAD7 mRNA expression
771568 (antisense e[5mC]*eT*eG*e[5mC]*eA*dA*dA*d[5mC]*d[5mC]*dT*d[5mC]*dT*d[5mC]*dT*dG*e[5mC]*eT*eG*eG*eG) [compound 771568]	17%
771569 (antisense eG*eG*eA*e[5mC]*eT*dG*d[5mC]*dA*dA*dA*d[5mC]*d[5mC]*dT*d[5mC]*dT*e[5mC]*eT*eG*e[5mC]*eT) [compound 771569]	30%
771577 (antisense eT*eG*e[5mC]*e[5mC]*eT*d[5mC]*dT*dG*d[5mC]*d[5mC]*d[5mC]*d[5mC]*dA*d[5mC]*dT*eG*eA*eG*e[5mC]*eG) [compound 771577]	21%
771578 (antisense e[5mC]*eT*eG*e[5mC]*e[5mC]*dT*d[5mC]*dT*dG*d[5mC]*d[5mC]*d[5mC]*d[5mC]*dA*d[5mC]*eT*eG*eA*eG*e[5mC]) [compound 771578]	50%
771584 (antisense eA*eG*e[5mC]*e[5mC]*eG*dT*dG*d[5mC]*dT*d[5mC]*d[5mC]*dT*dG*dG*d[5mC]*eA*eG*e[5mC]*eT*eG) [compound 771584]	7%
771585 (antisense eG*eA*eG*e[5mC]*e[5mC]*dG*dT*dG*d[5mC]*dT*d[5mC]*d[5mC]*dT*dG*dG*e[5mC]*eA*eG*e[5mC]*eT) [compound 771585]	49%
771586 (antisense e[5mC]*e[5mC]*eT*eT*eG*dA*dT*dG*dA*dG*dG*dG*dA*dG*dA*eG*eG*eA*eG*eG) [compound 771586]	48%
771592 (antisense e[5mC]*eT*eG*e[5mC]*eT*d[5mC]*dA*dG*dA*dA*dG*d[5mC]*d[5mC]*dT*dG*eT*eG*eG*eA*e[5mC]) [compound 771592]	0%
771593 (antisense e[5mC]*eG*e[5mC]*eT*eG*d[5mC]*dT*d[5mC]*dA*dG*dA*dA*dG*d[5mC]*d[5mC]*eT*eG*eT*eG*eG) [compound 771593]	41%
771594 (antisense eG*eG*e[5mC]*e[5mC]*eA*d[5mC]*dT*dA*dG*d[5mC]*dA*dG*dG*d[5mC]*dT*e[5mC]*eG*e[5mC]*eT*eG) [compound 771594]	37%
771600 (antisense eT*eG*eG*e[5mC]*e[5mC]*dA*dA*dA*dA*dA*dA*dG*dA*dA*dA*eG*eA*e[5mC]*eG*e[5mC]) [compound 771600]	0%
771601 (antisense eG*eA*eT*eG*eG*d[5mC]*d[5mC]*dA*dA*dA*dA*dA*dA*dG*dA*eA*eA*eG*eA*e[5mC]) [compound 771601]	13%

Same assay, conditions: electroporation, 15,000 nM, approximately 24 hours, relative to untreated control cells, gapmers targeting SEQ ID NO: 1 and 2

Substance	% inhibition of SMAD7 mRNA expression
771589 (antisense eT*eG*eG*eA*e[5mC]*dA*dG*dG*d[5mC]*d[5mC]*d[5mC]*dG*dT*dG*dT*e[5mC]*e[5mC]*eT*eT*eG) [compound 771589]	51%
771597 (antisense eG*eA*eA*eT*eA*dA*dG*dA*d[5mC]*dA*dA*dG*dG*dA*dT*eG*eA*eA*eA*eA) [compound 771597]	0%
771605 (antisense eG*eG*e[5mC]*eT*eG*d[5mC]*d[5mC]*d[5mC]*d[5mC]*dG*dG*d[5mC]*dA*dG*d[5mC]*e[5mC]*e[5mC]*eT*eT*eG) [compound 771605]	26%
